As a reminder, the IC50 is the midpoint of a concentration-inhibition curve.

Bounds are passed on as bounds.

The assay addresses T1, Human recombinant PTP-1B (Homo sapiens, UniProt P18031).
T1 construct: Human recombinant PTP-1B, containing amino acids 1-321, fused to GST enzyme; GST (glutathione S-transferase)
T1 sequence (P18031 1-321): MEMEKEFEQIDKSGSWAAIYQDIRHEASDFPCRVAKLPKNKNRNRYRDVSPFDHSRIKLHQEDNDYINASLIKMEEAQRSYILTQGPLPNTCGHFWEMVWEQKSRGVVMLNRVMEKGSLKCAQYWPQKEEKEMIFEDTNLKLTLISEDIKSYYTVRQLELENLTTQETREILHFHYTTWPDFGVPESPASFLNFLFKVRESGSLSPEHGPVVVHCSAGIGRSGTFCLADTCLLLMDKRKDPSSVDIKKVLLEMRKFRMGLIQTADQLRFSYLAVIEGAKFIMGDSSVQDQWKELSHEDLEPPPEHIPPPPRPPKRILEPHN
Kind of assay: Assay for PTP-1B Activity (pNPP substrate). The note with it: human recombinant PTP-1B (1-321) GST fusion, 2 mM pNPP, pH 7.4, 30° C., 20 min; read-out: Activity Code (IC50 range). It counts as biochemical. An excerpt: The activity of the compounds as modulators of protein tyrosine phosphatase, including PTP-1B, may be measured in standard assays (see, e.g., Examples 41 and 42). Briefly, the assay described herein employs human recombinant PTP-1B and a pNPP substrate in a rescue assay.
Assay for PTP-1B Activity
Enzyme: Human recombinant PTP-1B, containing amino acids 1-321, fused to GST enzyme (glutathione S-transferase) purified by affinity chromatography (Huyer et al, 1997, J. Biol. Chem., 272, 843-852).
pNPP: p-Nitrophenyl Phosphate (Calbiochem)
Assay Buffer: 50 mM HEPES (pH 7.4), 100 mM NaCl, 2 mM EDTA, 3 mM DTT
(5×) pNPP substrate: 10 mM pNPP in assay buffer
Enzyme: 1 mg/ml PTP1B (1-321), dilute 1:200 in assay buffer
Assay buffer: 50 mM HEPES (pH 7.4), 100 mM NaCl, 2 mM EDTA, 3 mM DTT
Enzyme dilution buffer: 50 mM HEPES (pH 7.4), 100 mM NaCl, 2 mM EDTA, 3 mM DTT
Substrate 198 mM p-Nitrophenyl Phosphate (pNPP) store at 4° C.
The assay was carried out at 30° C. in 96 well plates. The reaction mixture in 60 ul contained 50 mM HEPES (pH 7.4), 100 mM NaCl, 2 mM EDTA, 3 mM DTT, and 2 mM p-Nitrophenyl Phosphate (pNPP). 5 ul of the test compound (inhibitor) dissolved in DMSO or DMSO alone for control was added to each well and the plate was mixed for 2 min. The reaction was initiated by adding 20 ul of diluted PTP1B (5 ng/ul in 50 mM HEPES (pH 7.4), 100 mM NaCl, 2 mM EDTA, 3 mM DTT). After 20 min at 30° C., the enzyme reaction was terminated by adding 100 ul of 2 M K2CO3 to each well. The phosphatase activity was detected by using Victor II plate reader (Wallac) with absorbance detection at 405 nm. All the assays were done at least in duplicate. The initial rate of pNP is plotted against the concentration of inhibitor.
In the case of `O=C(O)c1ccc(-c2cn(Cc3ccccn3)c(=O)n2Cc2ccc(C(F)(F)P(=O)(O)O)c(Br)c2)cc1` [Compound 36, 4-{3-[3-Bromo-4-(difluoro-phosphono-methyl)-benzyl]-2-oxo-1-pyridin-2-ylmethyl-2,3-dihydro-1H-imidazol-4-yl}-benzoic acid], the IC50 lay in the range of 250 to 2500 nM.

Turning to `CCOC(=O)n1cc(-c2ccc(C(=O)OC)cc2)n(Cc2ccc(C(F)(F)P(=O)(O)O)c(Br)c2)c1=O` [Compound 37, 3-[3-Bromo-4-(difluoro-phosphono-methyl)-benzyl]-4-(4-methoxycarbonyl-phenyl)-2-oxo-2,3-dihydro-imidazole-1-carboxylic acid ethyl ester], the IC50 fell in the range of 250 to 2500 nM.

As for `COC(=O)c1ccc(-c2cn(C)c(=O)n2Cc2ccc(C(F)(F)P(=O)(O)O)c(Br)c2)cc1` [Compound 38, 4-{3-[3-Bromo-4-(difluoro-phosphono-methyl)-benzyl]-1-methyl-2-oxo-2,3-dihydro-1H-imidazol-4-yl}-benzoic acid methyl ester], the 50% inhibitory concentration (IC50) was in the range of 250 to 2500 nM.

On to `O=c1n(Cc2ccccc2)cc(-c2ccsc2)n1Cc1ccc(C(F)(F)P(=O)(O)O)c(Br)c1` [Compound 39, {[4-(3-Benzyl-2-oxo-5-thiophen-3-yl-2,3-dihydro-imidazol-1-ylmethyl)-2-bromo-phenyl]-difluoro-methyl}-phosphonic acid], for which the IC50 fell in the range of 250 to 2500 nM.

Regarding `CC(=O)Nc1cccc(Cn2cc(-c3ccc(S(C)(=O)=O)cc3)n(Cc3ccc(C(F)(F)P(=O)(O)O)c(Br)c3)c2=O)c1` [Compound 40, ({4-[3-(3-Acetylamino-benzyl)-5-(4-methanesulfonyl-phenyl)-2-oxo-2,3-dihydro-imidazol-1-ylmethyl]-2-bromo-phenyl}-difluoro-methyl)-phosphonic acid], the IC50 was less than 99 nM.

With `COC(=O)c1ccc(-c2c[nH]c(=O)n2Cc2ccc(C(F)(F)P(=O)(O)O)c(Br)c2)cc1` [Compound 41, 4-{3-[3-Bromo-4-(difluoro-phosphono-methyl)-benzyl]-2-oxo-2,3-dihydro-1H-imidazol-4-yl}-benzoic acid methyl ester], the 50% inhibitory concentration (IC50) lay in the range of 250 to 2500 nM.

For `Cn1cc(-c2ccc(C(=O)O)cc2)n(Cc2ccc(C(F)(F)P(=O)(O)O)c(Br)c2)c1=O` [Compound 42, 4-{3-[3-Bromo-4-(difluoro-phosphono-methyl)-benzyl]-1-methyl-2-oxo-2,3-dihydro-1H-imidazol-4-yl}-benzoic acid], the IC50 lay within 250 to 2500 nM.

As to `O=c1n(Cc2ccc(C(F)(F)P(=O)(O)O)c(Br)c2)ccn1-c1ccccc1` [Compound 43, {[2-Bromo-4-(2-oxo-3-phenyl-2,3-dihydro-imidazol-1-ylmethyl)-phenyl]-difluoro-methyl}-phosphonic acid], the IC50 was 2500 to 25000 nM.

For the compound `O=c1n(Cc2ccccc2)cc(-c2cccs2)n1Cc1ccc(C(F)(F)P(=O)(O)O)c(Br)c1` [Compound 44, {[4-(3-Benzyl-2-oxo-5-thiophen-2-yl-2,3-dihydro-imidazol-1-ylmethyl)-2-bromo-phenyl]-difluoro-methyl}-phosphonic acid], the half-inhibitory concentration (IC50) was 250 to 2500 nM.

With `COC(=O)/C=C/c1ccc(-c2cn(C3CC3)c(=O)n2Cc2ccc(C(F)(F)P(=O)(O)O)c(Br)c2)cc1` [Compound 45, 3-(4-{3-[3-Bromo-4-(difluoro-phosphono-methyl)-benzyl]-1-cyclopropyl-2-oxo-2,3-dihydro-1H-imidazol-4-yl}-phenyl)-acrylic acid methyl ester], the IC50 was less than 99 nM.

Turning to `O=C(O)/C=C/c1ccc(-c2cn(C3CC3)c(=O)n2Cc2ccc(C(F)(F)P(=O)(O)O)c(Br)c2)cc1` [Compound 46, 3-(4-{3-[3-Bromo-4-(difluoro-phosphono-methyl)-benzyl]-1-cyclopropyl-2-oxo-2,3-dihydro-1H-imidazol-4-yl}-phenyl)-acrylic acid], the IC50 was less than 99 nM.

For the compound `CCn1cc(-c2ccc(C(=O)OC)cc2)n(Cc2ccc(C(F)(F)P(=O)(O)O)c(Br)c2)c1=O` [Compound 47, 4-{3-[3-Bromo-4-(difluoro-phosphono-methyl)-benzyl]-1-ethyl-2-oxo-2,3-dihydro-1H-imidazol-4-yl}-benzoic acid methyl ester], the IC50 was in the range of 100 to 249 nM.

Consider `CCCn1cc(-c2ccc(C(=O)OC)cc2)n(Cc2ccc(C(F)(F)P(=O)(O)O)c(Br)c2)c1=O` [Compound 48, 4-{3-[3-Bromo-4-(difluoro-phosphono-methyl)-benzyl]-2-oxo-1-propyl-2,3-dihydro-1H-imidazol-4-yl}-benzoic acid methyl ester], for which the IC50 lay within 100 to 249 nM.

For `O=c1n(Cc2ccccc2)cc(-c2ccc3c(c2)CCCC3)n1Cc1ccc(C(F)(F)P(=O)(O)O)c(Br)c1` [Compound 49, ({4-[3-Benzyl-2-oxo-5-(5,6,7,8-tetrahydro-naphthalen-2-yl)-2,3-dihydro-imidazol-1-ylmethyl]-2-bromo-phenyl}-difluoro-methyl)-phosphonic acid], the IC50 is 250 to 2500 nM.

As to `CS(=O)(=O)c1ccc(Cn2ccn(Cc3ccc(C(F)(F)P(=O)(O)O)c(Br)c3)c2=O)cc1` [Compound 50, ({2-Bromo-4-[3-(4-methanesulfonyl-benzyl)-2-oxo-2,3-dihydro-imidazol-1-ylmethyl]-phenyl}-difluoro-methyl)-phosphonic acid], the IC50 was in the range of 250 to 2500 nM.

As for `COC(=O)COc1ccc(-c2cn(C3CC3)c(=O)n2Cc2ccc(C(F)(F)P(=O)(O)O)c(Br)c2)cc1` [Compound 51, (4-{3-[3-Bromo-4-(difluoro-phosphono-methyl)-benzyl]-1-cyclopropyl-2-oxo-2,3-dihydro-1H-imidazol-4-yl}-phenoxy)-acetic acid methyl ester], the IC50 fell in the range of 100 to 249 nM.

As for `O=C(O)COc1ccc(-c2cn(C3CC3)c(=O)n2Cc2ccc(C(F)(F)P(=O)(O)O)c(Br)c2)cc1` [Compound 52, (4-{3-[3-Bromo-4-(difluoro-phosphono-methyl)-benzyl]-1-cyclopropyl-2-oxo-2,3-dihydro-1H-imidazol-4-yl}-phenoxy)-acetic acid], the IC50 is less than 99 nM.

As to `CC(C)(C)C(=O)OCOC(=O)c1ccc(-c2cn(Cc3ccccc3)c(=O)n2Cc2ccc(C(F)(F)P(=O)(O)OCOC(=O)C(C)(C)C)c(Br)c2)cc1` [Compound 53, 4-[1-Benzyl-3-(3-bromo-4-{[(2,2-dimethyl-propionyloxy-methoxy)-hydroxy-phosphoryl]-difluoro-methyl}-benzyl)-2-oxo-2,3-dihydro-1H-imidazol-4-yl]-benzoic acid 2,2-dimethyl-propionyloxymethyl ester], the 50% inhibitory concentration (IC50) lay in the range of 2500 to 25000 nM.

For `COC(=O)c1ccc(Cn2cc(-c3ccccc3)n(Cc3ccc(C(F)(F)P(=O)(O)O)c(Br)c3)c2=O)cc1` [Compound 54, 4-{3-[3-Bromo-4-(difluoro-phosphono-methyl)-benzyl]-2-oxo-4-phenyl-2,3-dihydro-imidazol-1-ylmethyl}-benzoic acid methyl ester], the IC50 lay within 100 to 249 nM.

`O=C(O)c1ccc(Cn2cc(-c3ccccc3)n(Cc3ccc(C(F)(F)P(=O)(O)O)c(Br)c3)c2=O)cc1` [Compound 55, 4-{3-[3-Bromo-4-(difluoro-phosphono-methyl)-benzyl]-2-oxo-4-phenyl-2,3-dihydro-imidazol-1-ylmethyl}-benzoic acid]: the concentration for half-maximal inhibition (IC50) lay within 250 to 2500 nM.

For the origin of these results see patent US20080070867A1, “2-Imidazolone and 2-Imidazolidinone Heterocyclic Inhibitors of Tyrosine Phosphatases” (Metabasis Therapeutics, Inc., priority 2005, published 2008).
